The results in this text go back to patent publication US20060088552A1, “Method for inhibiting cell death, cell death inhibitor, and remedy for disease caused by cell death containing the cell death inhibitor” (priority 2002, published 2006).

The test system of experiment [1] is C6 glial cells. Put plainly: Whole-cell patch-clamp recording of VacA-induced currents. The experiment is classed as cell-based, rat. The following applies: extracellular application, 100 μM, pH 7.4. How it is done:
Using wide-tipped electrodes (to 2 MΩ), observation according to whole-cell recording (patch-clamp methods) was performed at room temperature (23-25° C.) as reported previously (Kubo M., Okada Y., “Volume-regulatory Cl^− channel currents in cultured human epithelial cells”, J. Physiol. 456, 351-371, 1992). Series resistance (<5 MΩ) was compensated (to 60% to 70%) to minimize voltage errors. Time course of current change was monitored by applying (every 15 s) alternating step pulses ([…]) from a holding potential of 0 to ±40 mV. To monitor voltage dependence of a whole-cell volume-sensitive current, step pulses (2-s duration) were applied from a prepotential of −60 mV (2-s duration) to test potentials of −60 to 100 mV in 20 mV increments after attaining steady-state activation of swelling-induced current. […] Instantaneous currents were recorded 2.5 ms after application of step pulses. […] Currents were recorded using an EPC-9 amplifier (HEKA, Lambrechet, Germany). […]
Cell swelling was induced by hypotonic (270 mosmol/kg H2O) solution in which mannitol was reduced to 40 mM. […] Permeability properties of VacA-induced channels were also assessed by using the following solutions: […]
Relative anion permeability was also assessed by replacing 115 mM extracellular Cl^− with aspartate. […]

In experiment [2] the test system is C6 glial cells. Type of experiment: cell-based, rat. How it is done:
Cell volume was assessed according to a Coulter principle using a flow cytometer (EPICS Elite ESP, Coulter Co., Miami, Fla.). Cell viability was also assessed under a flow cytometry by a propidium iodide exclusion test. The cell suspension of 10 ml was incubated at 37° C. fro 1 min after adding 2 μl of PBS containing 10 mg/ml propidium iodide. Mean cell volume was measured at a given time by introducing 350 μl of the cell suspension containing 2×10^4 cells into the flow cytometer. A baseline cell volume was obtained as mean of values measured before and after a 20-min incubation in control solution (pH 7.4). Thereafter, effects of acidosis (pH 6.2), lactacidosis (pH 6.2), or lactate (pH 7.4) were assessed with addition of (i) HCl, (ii) lactate, or (iii) lactate and Tris. After the cells were preincubated with control (pH 7.4), acidic (pH 6.2), or lactacidosis (pH 6.2 with lactate) solution (all isotonic), effects of a hypotonic challenge were also assessed by diluting the isotonic medium with a 30% volume of deionized distilled water.
Composition of control solution employed for cell volume measurements was as follows: 125 mM NaCl, 2.5 mM KCl, 2 mM CaCl2, 1.0 mM MgCl2, 10 mM glucose, 1.25 mM NaH2PO4, and 25 mM NaHCO3 (pH 7.4, in 95% air/5% CO2). […] Molar osmolality measured by a freezing-point depression osmometer (Vogel, Giessen, Germany) was, 300, 306, and 312 mosmol/kg-H2O. […]

For `O=C(O)c1cc([N+](=O)[O-])ccc1NCCCc1ccccc1` [NPPB], the “effect on VacA-mediated current” value with C6 glial cells [1] was “strongly inhibited”. In the experiment with C6 glial cells [2] (100 μM NPPB, VacA-treated cells), the “volume regulation after lactacidosis-induced transient swelling in VacA-treated cells” value is listed as “abolished”.
As for gramicidin, the “lactacidosis-induced persistent cell swelling” value in the experiment with C6 glial cells [2] (pretreatment with gramicidin 0.5 μM) was “not prevented”.
